Laboratory results as given in paper PMC11062899, “De novo development of small cyclic peptides that are orally bioavailable” (Nature Chemical Biology, 2023).
“And” between values parts separate entries of the source, which are not always exact repeats. Equal entries are not always repeated. Where two headings read alike, the source gives them in different places.

Assays:
porcine pepsin = molecular target: T1, porcine pepsin (Sus scrofa, UniProt P00791); assay: Peptide stability in simulated gastric fluid (SGF); format: in vitro ADME
T1 construct: 0.32 g of porcine pepsin (Sigma-Aldrich, P7125) was dissolved under gentle agitation; purchased Sigma-Aldrich P7125
Method in brief: (§1)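 Peptide from a 1 mM DMSO stock was added to fluid pre-warmed at 37 °C. SGF was pH 1.2 NaCl with porcine pepsin (0.32 g per 100 ml), and SIF was pH 6.8 potassium phosphate with porcine pancreatin (1 g per 100 ml). Supernatant peptide was quantified by LC–MS, with residual expressed as T1/T0.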

[1] = Peptide stability in simulated intestinal fluid (SIF); format: in vitro ADME, porcine; settings: simulated gi fluid; 8 h, 37 °C, pH 6.8; read-out: Proteolytic stability: SIF (8 h) % remaining
Method in brief: as §1

porcine pancreatin = assay: as above; format: in vitro ADME; settings: after 8 h vs 0 h (TIC)
Method in brief: as §1

[2] = Metabolic stability in rat liver microsomes (RLMs); settings: for microsomal CLint / half-life: rat
rat α-thrombin = molecular target: T2, rat α-thrombin (Rattus norvegicus, UniProt P18292); assay: Protease inhibition, Ki for rat α-thrombin (fluorogenic substrate Z-Gly-Gly-Arg-AMC); format: biochemical; settings: rat alpha thrombin; for Slope normalized to DMSO (proteolytic substrate cleavage over time): replicates R1-R3
T2 construct: rat α-thrombin (Molecular Innovations) were used at final concentrations of 2 nM and 3 nM; purchased Molecular Innovations
Method in brief: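 Ki derived through Cheng–Prusoff from IC50s (four-parameter logistic fit) against activity of peptide-free controls. Product fluorescence was read every 3 min over 30 min at 25 °C, substrate Z-Gly-Gly-Arg-AMC at 50 μM. Enzyme was 2 nM human or 3 nM rat α-thrombin, pH 7.4 buffer.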

T1 sequence (P00791 60-385): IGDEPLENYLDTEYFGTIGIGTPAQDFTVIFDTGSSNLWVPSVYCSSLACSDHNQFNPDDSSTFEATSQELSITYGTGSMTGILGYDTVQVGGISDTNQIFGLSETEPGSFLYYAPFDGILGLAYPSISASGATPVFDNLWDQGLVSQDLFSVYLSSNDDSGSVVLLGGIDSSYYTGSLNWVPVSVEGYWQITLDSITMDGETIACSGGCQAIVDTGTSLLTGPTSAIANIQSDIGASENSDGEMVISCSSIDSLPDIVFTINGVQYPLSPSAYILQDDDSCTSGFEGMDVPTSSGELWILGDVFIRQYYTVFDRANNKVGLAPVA

O=C1C[C@H]2CCCN2C(=O)[C@H](Cc2ccccc2)NC(=O)[C@@H](NC(=O)c2ccc(Cl)s2)CSCc2cccc(n2)CSCCN1 [compound 31]
SGF stability, Residual peptide Average (porcine pepsin; after 8 h vs 0 h (TIC), average of R1-R3): 92.45 | SGF stability, Residual peptide (porcine pepsin; after 8 h vs 0 h (TIC), single replicates R1-R3): 99.51 and 90.02 and 87.82 | remaining at 8 h (porcine pepsin; simulated gi fluid, 8 h, 37 °C, pH 1.2, read-out: Proteolytic stability: SGF (8 h) % remaining): 92 ± 6% | remaining at 8 h [1]: 76 ± 8% | SIF stability, Residual peptide Average (porcine pancreatin; average of R1-R3): 75.90 | SIF stability, Residual peptide (porcine pancreatin; single replicates R1-R3): 75.23 and 67.97 and 84.49 | TIC value of compound, 0 min, R1 ([2]; rat liver microsomes, 0 min, replicate R1): 21675652 | TIC value of compound, 0 min, R3 ([2]; rat liver microsomes, 0 min, replicate R3): 21375886 | TIC value of compound, 5 min, R1 ([2]; rat liver microsomes, 5 min, replicate R1): 16129690 | TIC value of compound, 5 min, R3 ([2]; rat liver microsomes, 5 min, replicate R3): 21185792 | TIC value of compound, 15 min, R1 ([2]; rat liver microsomes, 15 min, replicate R1): 14173175 | TIC value of compound, 15 min, R3 ([2]; rat liver microsomes, 15 min, replicate R3): 14991116 | TIC value of compound, 30 min, R1 ([2]; rat liver microsomes, 30 min, replicate R1): 10634659 | TIC value of compound, 30 min, R3 ([2]; rat liver microsomes, 30 min, replicate R3): 9842710 | TIC value of compound, 60 min, R1 ([2]; rat liver microsomes, 60 min, replicate R1): 4587256 | TIC value of compound, 60 min, R3 ([2]; rat liver microsomes, 60 min, replicate R3): 4284596 | microsomal CLint ([2]; CL (ul/min/mg protein), R1, RLM CL, replicate R1, unrounded): 53.6 µL/min/mg | microsomal CLint ([2]; CL (ul/min/mg protein), R2, RLM CL, replicate R2, unrounded): 48.6 µL/min/mg | microsomal CLint ([2]; CL (ul/min/mg protein), R3, RLM CL, replicate R3, unrounded): 49.4 µL/min/mg | half-life ([2]; Half Life (min), R1, RLM metabolic stability, replicate R1): 25.9 min | half-life ([2]; Half Life (min), R2, RLM metabolic stability, replicate R2): 28.5 min | half-life ([2]; Half Life (min), R3, RLM metabolic stability, replicate R3): 28 min | half-life ([2]; microsomes, Metabolic stability: Half life T1/2 (min), RLMs, mean and SD, three measurements): 27 ± 1 min | microsomal CLint ([2]; microsomes, Metabolic stability: RLM CL (ul/min/mg), RLMs, mean and SD, three measurements): 51 ± 2 µL/min/mg | microsomal CLint ([2]; microsomes, RLM CL, Average, average of R1-R3): 50.6 µL/min/mg | microsomal CLint ([2]; microsomes, RLM CL, R1, RLM CL, replicate R1, summary block): 53.6 µL/min/mg | microsomal CLint ([2]; microsomes, RLM CL, R2, RLM CL, replicate R2, summary block): 48.6 µL/min/mg | microsomal CLint ([2]; microsomes, RLM CL, R3, RLM CL, replicate R3, summary block): 49.4 µL/min/mg | Ki (rat α-thrombin; average of R1-R3, read-out: Ki Average, rat alpha thrombin inhibition): 183 nM | Slope normalized to DMSO (proteolytic substrate cleavage over time) (rat α-thrombin; peptide 1.02E-03 uM): 99.2 and 100.9 and 93.8 | Slope normalized to DMSO (proteolytic substrate cleavage over time) (rat α-thrombin; peptide 1.04E+00 uM): 29.7 and 30.1 and 28.1 | Slope normalized to DMSO (proteolytic substrate cleavage over time) (rat α-thrombin; peptide 1.27E-04 uM): 101.2 and 100.0 and 97.1 | Slope normalized to DMSO (proteolytic substrate cleavage over time) (rat α-thrombin; peptide 1.30E-01 uM): 74.9 and 71.7 and 69.9 | Slope normalized to DMSO (proteolytic substrate cleavage over time) (rat α-thrombin; peptide 1.59E-05 uM): 103.1 and 102.5 and 98.1 | Slope normalized to DMSO (proteolytic substrate cleavage over time) (rat α-thrombin; peptide 1.63E-02 uM): 92.3 and 92.5 and 97.9 | Slope normalized to DMSO (proteolytic substrate cleavage over time) (rat α-thrombin; peptide 1.67E+01 uM): 5.4 and 8.1 and 5.8 | Slope normalized to DMSO (proteolytic substrate cleavage over time) (rat α-thrombin; peptide 2.03E-03 uM): 98.5 and 94.4 and 93.1 | Slope normalized to DMSO (proteolytic substrate cleavage over time) (rat α-thrombin; peptide 2.08E+00 uM): 20.1 and 19.4 and 16.8 | Slope normalized to DMSO (proteolytic substrate cleavage over time) (rat α-thrombin; peptide 2.54E-04 uM): 119.5 and 99.6 and 95.9 | Slope normalized to DMSO (proteolytic substrate cleavage over time) (rat α-thrombin; peptide 2.60E-01 uM): 60.8 and 61.1 and 58.9 | Slope normalized to DMSO (proteolytic substrate cleavage over time) (rat α-thrombin; peptide 3.18E-05 uM): 100.8 (2×) and 96.5 | Slope normalized to DMSO (proteolytic substrate cleavage over time) (rat α-thrombin; peptide 3.26E-02 uM): 86.1 and 87.0 and 83.0 | Slope normalized to DMSO (proteolytic substrate cleavage over time) (rat α-thrombin; peptide 3.33E+01 uM): 5.3 (2×) and 6.5 | Slope normalized to DMSO (proteolytic substrate cleavage over time) (rat α-thrombin; peptide 4.07E-03 uM): 93.9 and 97.5 and 93.1 | Slope normalized to DMSO (proteolytic substrate cleavage over time) (rat α-thrombin; peptide 4.17E+00 uM): 12.5 and 13.2 and 11.9 | Slope normalized to DMSO (proteolytic substrate cleavage over time) (rat α-thrombin; peptide 5.09E-04 uM): 99.8 and 101.3 and 106.4 | Slope normalized to DMSO (proteolytic substrate cleavage over time) (rat α-thrombin; peptide 5.21E-01 uM): 39.6 and 40.5 and 38.3 | Slope normalized to DMSO (proteolytic substrate cleavage over time) (rat α-thrombin; peptide 6.36E-05 uM): 100.0 and 99.8 and 96.8 | Slope normalized to DMSO (proteolytic substrate cleavage over time) (rat α-thrombin; peptide 6.51E-02 uM): 90.0 and 82.1 and 78.1 | Slope normalized to DMSO (proteolytic substrate cleavage over time) (rat α-thrombin; peptide 6.67E+01 uM): 6.2 and 7.3 and 4.1 | Slope normalized to DMSO (proteolytic substrate cleavage over time) (rat α-thrombin; peptide 7.95E-06 uM): 105.8 and 104.8 and 99.9 | Slope normalized to DMSO (proteolytic substrate cleavage over time) (rat α-thrombin; peptide 8.14E-03 uM): 96.3 and 93.4 and 96.8 | Slope normalized to DMSO (proteolytic substrate cleavage over time) (rat α-thrombin; peptide 8.33E+00 uM): 9.2 and 9.9 and 7.4 | IC50 (rat α-thrombin; single replicates R1-R3, read-out: IC50, rat alpha thrombin inhibition): 339 nM and 326 nM (2×) | Ki (rat α-thrombin; single replicates R1-R3, read-out: Ki, rat alpha thrombin inhibition): 188 nM (2×) and 181 nM (2×) and 180 nM (2×)
